The NIST ThermoML archive (doi:10.1021/acs.jced.8b01135)

Assay: xn = mol fraction of the nth substance listed
Settings: 102 kPa, Liquid; for speed of sound: Frequency=3 MHz, Single path-length method; for mass density: Vibrating tube method; for viscosity: Concentric cylinders viscometry

CCCCCCCCCCCCC1CCCCC1 [dodecylcyclohexane] + CCCCCCCCCCCC
Settings | mass density [kg/m3] | speed of sound [m/s] | viscosity [mPa·s]
288.15 K, x1 = 0.1005 | 762.18 | 1333.2 | –
288.15 K, x1 = 0.2001 | 771.24 | 1348 | –
288.15 K, x1 = 0.298 | 779.52 | 1361.9 | –
288.15 K, x1 = 0.4031 | 787.8 | 1375.7 | –
288.15 K, x1 = 0.5001 | 794.95 | 1387.9 | –
288.15 K, x1 = 0.6005 | 801.89 | 1400 | –
288.15 K, x1 = 0.7003 | 808.42 | 1411.3 | –
288.15 K, x1 = 0.7997 | 814.5 | 1421.8 | –
288.15 K, x1 = 0.8994 | 820.23 | 1432.1 | –
288.15 K, x1 = 1 | 825.71 | 1441.5 | –
293.15 K, x1 = 0.1005 | 758.6 | 1313.7 | 1.82
293.15 K, x1 = 0.2001 | 767.69 | 1328.7 | 2.14
293.15 K, x1 = 0.298 | 776 | 1342.6 | 2.53
293.15 K, x1 = 0.4031 | 784.32 | 1356.6 | 3.03
293.15 K, x1 = 0.5001 | 791.49 | 1368.9 | 3.55
293.15 K, x1 = 0.6005 | 798.47 | 1381 | 4.17
293.15 K, x1 = 0.7003 | 805.01 | 1392.4 | 4.9
293.15 K, x1 = 0.7997 | 811.11 | 1403.1 | 5.73
293.15 K, x1 = 0.8994 | 816.87 | 1413.3 | 6.68
293.15 K, x1 = 1 | 822.36 | 1422.9 | 7.76
298.15 K, x1 = 0.1005 | 755.01 | 1294.4 | –
298.15 K, x1 = 0.2001 | 764.14 | 1309.5 | –
298.15 K, x1 = 0.298 | 772.48 | 1323.5 | –
298.15 K, x1 = 0.4031 | 780.84 | 1337.6 | –
298.15 K, x1 = 0.5001 | 788.04 | 1350 | –
298.15 K, x1 = 0.6005 | 795.04 | 1362.1 | –
298.15 K, x1 = 0.7003 | 801.61 | 1374 | –
298.15 K, x1 = 0.7997 | 807.73 | 1384.7 | –
298.15 K, x1 = 0.8994 | 813.51 | 1395.1 | –
298.15 K, x1 = 1 | 819.02 | 1404.8 | –
303.15 K, x1 = 0.1005 | 751.42 | 1275.3 | 1.53
303.15 K, x1 = 0.2001 | 760.58 | 1290.5 | 1.75
303.15 K, x1 = 0.298 | 768.97 | 1304.6 | 2.05
303.15 K, x1 = 0.4031 | 777.36 | 1318.8 | 2.43
303.15 K, x1 = 0.5001 | 784.59 | 1331.3 | 2.82
303.15 K, x1 = 0.6005 | 791.62 | 1343.5 | 3.28
303.15 K, x1 = 0.7003 | 798.2 | 1355.4 | 3.79
303.15 K, x1 = 0.7997 | 804.35 | 1366.3 | 4.38
303.15 K, x1 = 0.8994 | 810.15 | 1376.6 | 5.05
303.15 K, x1 = 1 | 815.68 | 1386.3 | 5.81
313.15 K, x1 = 0.1005 | 744.23 | 1237.7 | 1.29
313.15 K, x1 = 0.2001 | 753.48 | 1253.1 | 1.46
313.15 K, x1 = 0.298 | 761.93 | 1267.5 | 1.7
313.15 K, x1 = 0.4031 | 770.4 | 1281.9 | 1.99
313.15 K, x1 = 0.5001 | 777.69 | 1294.6 | 2.28
313.15 K, x1 = 0.6005 | 784.77 | 1307 | 2.63
313.15 K, x1 = 0.7003 | 791.4 | 1319.2 | 3.01
313.15 K, x1 = 0.7997 | 797.6 | 1330.2 | 3.45
313.15 K, x1 = 0.8994 | 803.45 | 1340.7 | 3.93
313.15 K, x1 = 1 | 809.03 | 1350.5 | 4.48
323.15 K, x1 = 0.1005 | 737.02 | 1200.9 | 1.09
323.15 K, x1 = 0.2001 | 746.35 | 1216.6 | 1.27
323.15 K, x1 = 0.298 | 754.88 | 1231.1 | 1.43
323.15 K, x1 = 0.4031 | 763.43 | 1245.9 | 1.66
323.15 K, x1 = 0.5001 | 770.78 | 1258.7 | 1.89
323.15 K, x1 = 0.6005 | 777.93 | 1271.3 | 2.16
323.15 K, x1 = 0.7003 | 784.61 | 1283.6 | 2.45
323.15 K, x1 = 0.7997 | 790.86 | 1294.8 | 2.78
323.15 K, x1 = 0.8994 | 796.76 | 1305.4 | 3.14
323.15 K, x1 = 1 | 802.38 | 1315.4 | 3.55
333.15 K, x1 = 0.1005 | 729.78 | 1165.1 | 0.945
333.15 K, x1 = 0.2001 | 739.2 | 1181 | 1.09
333.15 K, x1 = 0.298 | 747.81 | 1195.8 | 1.22
333.15 K, x1 = 0.4031 | 756.44 | 1210.7 | 1.4
333.15 K, x1 = 0.5001 | 763.86 | 1223.8 | 1.59
333.15 K, x1 = 0.6005 | 771.08 | 1236.5 | 1.8
333.15 K, x1 = 0.7003 | 777.81 | 1248.9 | 2.03
333.15 K, x1 = 0.7997 | 784.13 | 1260.3 | 2.29
333.15 K, x1 = 0.8994 | 790.08 | 1271 | 2.57
333.15 K, x1 = 1 | 795.75 | 1281.4 | 2.88
